Laboratory results from PubChem BioAssay AID2742 (NMMLSC, 2010).
Several values for one entry are separate records, joined by “and”; a condition that tells them apart may be missing. Identical values can stand only once. Activity calls are given as the source filed them.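 Rule for the calls: active = fitted half-maximal concentration for changing background-corrected GFP signal at or below a set limit; inactive = the rest.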

Experiment: TOR pathway reporter MEP2-GFP, concentration series – S. cerevisiae, flow cytometry GFP, MLPCN hits, dose response (AID 2742);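 note: GFP tag reports level of MEP2 protein as a downstream target of TOR signalling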
Settings: S. cerevisiae MEP2-GFP strain, flow cytometry fluorescence, 3 h; at 33 µM (top of the series)

| SMILES | GFP fluorescence (kMESF), higher = increase |
| --- | --- |
| CN1CCN(C(=O)c2cc(COc3c(F)cccc3F)on2)CC1c1ccccc1 (centres undefined) | 5.87 kMESF (inactive) |
| COc1ccc(N/N=C(\C#N)C(N)=O)cc1 | 1.24 kMESF (inactive) |
| COc1ccc(C2=CC(=O)N(Nc3ccccc3)C2=O)cc1 | 6.84 kMESF (inactive) |
| CCN1C(=O)/C(=C\C(=O)c2cccs2)c2cc(Br)ccc21 | 9.04 kMESF (inactive) |
| O=[N+]([O-])c1cc(CN2CCN(c3cccc(C(F)(F)F)c3)CC2)c2cccnc2c1O | 4.44 kMESF (inactive) |
| O=C1C(Cl)=C(Nc2ccccc2O)C(=O)N1c1ccccc1 | 4.11 kMESF (inactive) |
| O=C(OCn1ncc(Br)c(Br)c1=O)c1ccc(F)cc1 | 5.15 kMESF (inactive) |
| CC1=C/C(=N\OS(=O)(=O)c2ccccc2)C(C(C)C)=CC1=O | 8.38 kMESF (inactive) |
| COc1ccccc1[C@@]1(C)ON(c2ccccc2C(F)(F)F)C1=O | 5.08 kMESF (inactive) |
| O=C(Nc1ccc(NC(=O)c2cc3ccccc3o2)cc1)c1ccc2c(c1)OCCO2 | 2.4 kMESF (inactive) |
| Cc1ccc(C(=O)/C=C/C(=O)c2ccc(C)cc2)cc1 | 3.81 kMESF (inactive) |
| Cc1ccc(NN2C(=O)C=C(c3ccc(Cl)cc3)C2=O)cc1 | 4.9 kMESF (inactive) |
| O=C(NC(=S)Nc1ccc2oc(=O)ccc2c1)c1cccc(Cl)c1 | 1.7 kMESF (inactive) |
| CCOC(=O)CSC1=NC(=O)/C(=C/c2ccc(OC)cc2)S1 | 1.26 kMESF (inactive) |
| O=C(/C=C/c1ccccc1Cl)c1ccccc(=O)c1O | -0.57 kMESF (inactive) |
| O=C1N(c2ccccc2C(F)(F)F)OC1(Cc1ccccc1)c1ccccc1 (centres undefined) | 2.86 kMESF (inactive) |
| N=C1S/C(=C\c2ccco2)C(=O)N1c1nccs1 | 4.56 kMESF (inactive) |
| Cc1c(Cc2ccccc2)c(NCCN(C)C)n2c(nc3ccccc32)c1C#N | 4.39 kMESF (inactive) |
| Oc1c(CN2CCN(c3ccc(F)cc3)CC2)cc(Cl)c2cccnc12 | 10.7 kMESF (inactive) |
| CCCOc1ccc(C(=O)NNC(=S)NC(=O)c2ccccc2)cc1 | 4.61 kMESF (inactive) |
| Cc1ccc(C)c(/C=C/C(=O)c2ccccc(=O)c2O)c1 | -0.95 kMESF (inactive) |

| SMILES | GFP fluorescence (kMESF), higher = increase |
| --- | --- |
| O=C1C2C3C=CC(CO)(O3)C2C(=O)N1c1ccccc1-c1ccccc1 (centres undefined) | 5.17 kMESF (inactive) |
| COc1cc(NC(=O)c2ccccc2[N+](=O)[O-])ccc1NC(=O)c1cc2ccccc2o1 | 2.3 kMESF (inactive) |
| CC1=NOC(=O)/C1=C\c1ccc(-c2cc(Cl)ccc2Cl)o1 | 4.04 kMESF (inactive) |
| Oc1c(Br)cc(Br)cc1C=Nc1ccc2[nH]ncc2c1 | 5.46 kMESF (inactive) |
| CC(OC(=O)c1ccco1)C(=O)Nc1nc(-c2ccccc2)cs1 (centres undefined) | 2.67 kMESF (inactive) |
| O=C1C2C3C=CC(CO)(O3)C2C(=O)N1c1ccc(-c2ccccc2)cc1 (centres undefined) | 4.74 kMESF (inactive) |
| CSc1nnc2c3cc(F)ccc3n(C)c2n1 | 2.36 kMESF (inactive) |
| O=C(Nc1nnc(-c2ccc(F)cc2)o1)c1cccc([N+](=O)[O-])c1 | 2.99 kMESF (inactive) |
| O=C(O)c1ccc2c(c1)C(=O)/C(=C/c1ccccc1)C2=O | 2.47 kMESF (inactive) |
| Cc1ccc(C(c2cc(Cl)c3cccnc3c2O)N2CCN(C)CC2)cc1 (centres undefined) | 3.22 kMESF (inactive) |
| CC1=C(C)/C(=N\OS(=O)(=O)c2ccccc2)C=CC1=O | 4.84 kMESF (inactive) |
| O=[N+]([O-])c1ccc(O)c2ncccc12 | 3.94 kMESF (inactive) and 3.38 kMESF (inactive) |
| O=C(/C=C/c1ccccc1)NC(=S)NNC(=O)Cc1cccs1 | 2.02 kMESF (inactive) |
| CCOC(=O)C1=C(O)c2ccccc2C(=O)/C1=C\c1ccc(C)cc1 | -34.5 kMESF (inactive) |
| O=C(/C=C/c1ccnc2ccccc12)c1cccs1 | 4.23 kMESF (inactive) |
| Oc1ccc(N=Nc2ccccc2)o1 | 4.33 kMESF (inactive) |
| COc1ccc(/C=C/C(=O)C2C(=O)C=C(C)OC2=O)cc1O (centres undefined) | 5.45 kMESF (inactive) |
| Cn1ncc2c(O/N=C(\N)c3ccc(C(C)(C)C)cc3)ncnc21 | 3.78 kMESF (inactive) |
| CC(C)(C)n1nc(-c2ccc(F)cc2)c2c(N)ncnc21 | 4.89 kMESF (inactive) |
| O=C(Oc1oc(-c2ccco2)nc1C=Nc1ccccc1)c1ccco1 | 4.57 kMESF (inactive) |
| Cc1ccc(C(CC(=O)O)NC(=O)c2ccc(S(=O)(=O)N3CC(C)OC(C)C3)cc2)cc1 (centres undefined) | 3.08 kMESF (inactive) |

| SMILES | GFP fluorescence (kMESF), higher = increase |
| --- | --- |
| CC(C)(C)C(=O)C(Cl)C(=O)Nc1ccccc1 (centres undefined) | 4.12 kMESF (inactive) |
| Nc1ccccc1C#CC(=O)c1ccccc1 | 6.68 kMESF (inactive) |
| O=C(Oc1oc(-c2ccco2)nc1C=Nc1ccccc1)c1ccoc1 | 4.11 kMESF (inactive) |
| COc1cc(/C=C/c2ccc3c(Br)cc(Br)c(O)c3n2)ccc1O | 9.24 kMESF (inactive) |
| O=C(/C=C/c1ccccn1)c1ccc(Br)cc1O | 2.38 kMESF (inactive) |
| O=C1Nc2ccc(Br)cc2/C1=C/C(=O)c1ccc2c(c1)OCO2 | 4.66 kMESF (inactive) |
| CCN(CC)c1ccc2cc(-c3nc4ccccc4[nH]3)c(=O)oc2c1 | 6.39 kMESF (inactive) |
| CCCCC(=O)NNC(=S)NC(=O)c1ccc(C)cc1 | 4.34 kMESF (inactive) |
| c1ccc(-c2csc(Nc3cccnc3)n2)nc1 | 1.4 kMESF (inactive) |
| COc1ccc(NC(=O)/C(C#N)=C/c2ncc([N+](=O)[O-])n2C)c(OC)c1 | 4.5 kMESF (inactive) |
| Cc1c(NC2=C(Cl)C(=O)N(c3ccccc3)C2=O)c(=O)n(-c2ccccc2)n1C | 2.91 kMESF (inactive) |
| NC(=O)COc1ccc(C(=O)/C=C2/C(=O)Nc3ccccc32)cc1 | 3.66 kMESF (inactive) |
| COc1cc(N=c2ssnc2Cl)c(OC)cc1Cl | 6.31 kMESF (inactive) and 6.98 kMESF (inactive) |
| CCOC(=O)CS(=O)(=O)c1nc(-c2ccc(F)cc2)cc(C(F)(F)F)n1 | 5.21 kMESF (inactive) |
| O=C1/C(=C\c2ccc(O)c(O)c2)SC(=S)N1Cc1ccccc1 | -21.1 kMESF (inactive) |
| CC(C)[C@@]1(c2ccc(Cl)cc2)ON(c2ccccc2C(F)(F)F)C1=O | 2.87 kMESF (inactive) |
| Cc1cc(/C=C2/SC(=S)N(c3cccc(Cl)c3)C2=O)c(C)n1-c1cccnc1 | 8.22 kMESF (inactive) |
| O=C(O)c1ccc(COc2ccccc2C=C2C(=O)c3ccccc3C2=O)cc1 | 1.54 kMESF (inactive) |
| O=C(O)c1cc[c]([Hg][Cl])cc1 | 4.47 kMESF (inactive) |
| Cc1c(NC2=C(Cl)C(=O)N(c3ccccc3Cl)C2=O)c(=O)n(-c2ccccc2)n1C | 1.97 kMESF (inactive) |
| O=C(NC(=S)NNC(=O)c1cnccn1)c1ccc(Cl)cc1 | 3.51 kMESF (inactive) |

| SMILES | GFP fluorescence (kMESF), higher = increase |
| --- | --- |
| Cc1cc(Br)c2c(c1)/C(=C/C(=O)c1cccs1)C(=O)N2 | 3.78 kMESF (inactive) |
| C#CCOCCOCCOCCNc1nc(N2CCN(C(=O)CCCCCCCCCCNC(=O)[C@H](CCCCN)n3cc(CCCC(=O)O)nn3)CC2)nc(N2CCN(C(=O)CCCCCCCCCCNC(=O)[C@H](CCCN=C(N)N)n3cc(C[C@@H](C)CC)nn3)CC2)n1 | 3.78 kMESF (inactive) |
| O=C1ON=C(c2ccccc2)/C1=C\c1ccco1 | 4.59 kMESF (inactive) |
| O=C(O)c1ccccc1SC1CC(=O)N(c2ccc3c(c2)OCO3)C1=O (centres undefined) | 3.4 kMESF (inactive) |
| COc1ccccc1C(=O)NNC(=S)NC(=O)c1cccs1 | 4.73 kMESF (inactive) |
| CCn1c(/C=C/c2ccc([N+](=O)[O-])o2)nc2ccccc2c1=O | 2.26 kMESF (inactive) |
| C/C(=N\Nc1ncnc2sc(C)c(C)c12)c1ccccn1 | 38.2 kMESF (inactive) |
| COc1cccc2cc(-c3nc4ccccc4o3)c(=O)oc12 | 1.66 kMESF (inactive) |
| COc1ccc(/C=C/C(=O)c2cc(Br)ccc(=O)c2O)cc1 | -51.6 kMESF (inactive) |
| O=C(Nc1ccc(O)cc1)C1CCCN1S(=O)(=O)c1ccc(F)cc1 (centres undefined) | 1.62 kMESF (inactive) |
| O=C1N(c2ccccc2C(F)(F)F)O[C@@]1(c1ccccc1)C1CCCC1 | 2.17 kMESF (inactive) |
| CC(C)Oc1ccc(C(=O)/C=C2/C(=O)Nc3ccccc32)cc1 | 3.75 kMESF (inactive) |
| O=S(=O)(CCN(CCS(=O)(=O)C(F)(F)F)CC1CCCO1)C(F)(F)F (centres undefined) | 4.69 kMESF (inactive) |
| CCN(CC)C(=S)SSC(=S)N(CC)CC | 5.19 kMESF (inactive) |
| CN(c1ccccc1)c1ccc(/C=c2\s/c(=C(/C#N)C(=O)C(C)(C)C)n(Cc3ccco3)c2=O)cc1 | 13.7 kMESF (inactive) |
| COC(=O)c1cc(N2C(=O)C3C(C2=O)C2(C)C=CC3(C)O2)ccc1Cl (centres undefined) | 4.8 kMESF (inactive) |
| COc1cc(/C=C2\C(=O)ON=C2c2ccc(Cl)cc2)ccc1O | 3.71 kMESF (inactive) |
| CCCCS(=O)(=O)/C=C\C=C/S(=O)(=O)CCCC | 5.41 kMESF (inactive) |
| O=C1NC(=S)NC(=O)C1=Cc1ccc2c(c1)CCN2CCCCl | 4.18 kMESF (inactive) |
| Cc1ccc(NC(=O)CCc2ccccc2)cc1S(=O)(=O)N1CCOCC1 | 1.72 kMESF (inactive) |
| CCc1cc(C(=O)Nc2nc(-c3ccccn3)cs2)sc1C | 6.18 kMESF (inactive) |
